In one assay the target is Vasopressin V1a receptor (Homo sapiens, UniProt P37288). The class given is cell membranes, Membrane. The settings on record: hek293. Note: in other assays of this panel Not Active means under 50% inhibition at 10 µM.
Assay [1] deals with Kappa-type opioid receptor (Homo sapiens, UniProt P41145). In words: DRUGMATRIX: Opiate kappa (OP2, KOP) radioligand binding (ligand: [3H] Diprenorphine). The class given is cell membranes, HEK293, Membrane. The conditions noted are these: hek293; Not Active = under 50% inhibition at 10 µM.
Assay [2] deals with T1, 3-hydroxy-3-methylglutaryl-coenzyme A reductase (Homo sapiens, UniProt P04035).
T1 sequence (P04035 whole entry): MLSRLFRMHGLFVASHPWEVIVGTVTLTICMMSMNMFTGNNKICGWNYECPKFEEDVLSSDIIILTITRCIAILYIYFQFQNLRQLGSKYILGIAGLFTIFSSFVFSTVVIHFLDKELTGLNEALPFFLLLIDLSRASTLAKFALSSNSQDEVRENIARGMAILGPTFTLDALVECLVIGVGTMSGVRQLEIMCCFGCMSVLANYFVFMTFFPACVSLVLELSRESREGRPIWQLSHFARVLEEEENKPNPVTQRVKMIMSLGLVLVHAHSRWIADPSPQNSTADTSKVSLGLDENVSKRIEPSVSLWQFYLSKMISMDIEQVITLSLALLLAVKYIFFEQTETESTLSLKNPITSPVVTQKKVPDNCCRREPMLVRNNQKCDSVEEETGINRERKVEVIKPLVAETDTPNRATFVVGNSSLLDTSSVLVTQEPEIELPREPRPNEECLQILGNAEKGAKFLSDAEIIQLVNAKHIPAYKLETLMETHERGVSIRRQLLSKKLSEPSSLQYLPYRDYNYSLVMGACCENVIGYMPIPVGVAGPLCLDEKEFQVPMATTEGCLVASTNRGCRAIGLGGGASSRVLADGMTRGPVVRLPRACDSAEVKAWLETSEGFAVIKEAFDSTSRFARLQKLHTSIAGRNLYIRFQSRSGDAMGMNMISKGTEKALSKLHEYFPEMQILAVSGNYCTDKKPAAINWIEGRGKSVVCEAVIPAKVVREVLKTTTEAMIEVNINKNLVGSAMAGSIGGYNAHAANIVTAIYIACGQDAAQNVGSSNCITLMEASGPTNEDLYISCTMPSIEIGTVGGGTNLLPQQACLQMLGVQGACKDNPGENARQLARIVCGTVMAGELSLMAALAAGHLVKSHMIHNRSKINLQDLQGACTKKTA
Details: species or system Escherichia coli.

In assay [3] the target is Vascular endothelial growth factor receptor 1 (Homo sapiens, UniProt P17948). The class given is cell-based. The conditions noted are these: huvec. Note: in other assays of this panel Not Active means under 50% inhibition at 10 µM.
Assay [4] in a line: DRUGMATRIX: Sodium/nucleoside co-transporter radioligand binding (ligand: nitrobenzylthioinosine). The class given is cell membranes, Cavia porcellus, Dunkin-Hartley, Cerebral cortex, Membrane. The settings on record: Not Active = under 50% inhibition at 10 µM.
The next assay has as its target T2, Caspase-1 (Homo sapiens, UniProt P29466).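 Note: Caspase-1 enzyme inhibition assay with a peptide substrate; in other assays of this panel Not Active means under 50% inhibition at 10 µM.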
T2 sequence (P29466 whole entry): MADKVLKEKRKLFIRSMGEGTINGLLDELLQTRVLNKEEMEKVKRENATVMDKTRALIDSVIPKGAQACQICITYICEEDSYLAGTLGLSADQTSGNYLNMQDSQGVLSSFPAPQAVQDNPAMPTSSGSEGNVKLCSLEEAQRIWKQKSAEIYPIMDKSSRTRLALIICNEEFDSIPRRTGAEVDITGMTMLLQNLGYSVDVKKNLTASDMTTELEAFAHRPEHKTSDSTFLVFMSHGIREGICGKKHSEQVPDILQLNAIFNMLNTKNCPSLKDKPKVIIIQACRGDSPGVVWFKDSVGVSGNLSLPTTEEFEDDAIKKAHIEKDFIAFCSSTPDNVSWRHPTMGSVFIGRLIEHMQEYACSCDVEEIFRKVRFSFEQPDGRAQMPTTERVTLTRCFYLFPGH
Details: species or system Escherichia coli.

Assay [5] is described as follows: DRUGMATRIX: GABAA, Flunitrazepam, Central radioligand binding (ligand: [3H] Flunitrazepam). The class given is cell membranes, Rattus norvegicus, Wistar, Brain, Membrane. The settings on record: Not Active = under 50% inhibition at 10 µM.
Assay [6] has as its target T3, Muscarinic acetylcholine receptor M5 (Homo sapiens, UniProt P08912). Note: in other assays of this panel Not Active means under 50% inhibition at 10 µM.
T3 sequence (P08912 whole entry): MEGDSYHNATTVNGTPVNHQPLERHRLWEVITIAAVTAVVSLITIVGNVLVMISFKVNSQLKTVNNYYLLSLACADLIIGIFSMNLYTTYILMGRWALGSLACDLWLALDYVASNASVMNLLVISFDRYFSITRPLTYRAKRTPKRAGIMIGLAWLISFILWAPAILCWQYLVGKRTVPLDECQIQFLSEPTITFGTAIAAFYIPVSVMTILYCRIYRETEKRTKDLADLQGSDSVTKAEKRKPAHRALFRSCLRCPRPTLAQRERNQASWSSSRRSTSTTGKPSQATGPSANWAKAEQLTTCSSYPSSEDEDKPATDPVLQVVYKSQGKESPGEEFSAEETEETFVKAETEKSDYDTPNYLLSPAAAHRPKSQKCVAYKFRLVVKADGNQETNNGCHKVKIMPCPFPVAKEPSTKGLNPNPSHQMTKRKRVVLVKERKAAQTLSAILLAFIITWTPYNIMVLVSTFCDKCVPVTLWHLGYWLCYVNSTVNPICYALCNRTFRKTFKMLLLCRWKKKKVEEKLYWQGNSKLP
The class given is cell membranes, CHO-K1, Membrane. The conditions noted are these: cho-k1.

Assay [7] has as its target T4, Muscarinic acetylcholine receptor M2 (Homo sapiens, UniProt P08172). Note: in other assays of this panel Not Active means under 50% inhibition at 10 µM.
T4 sequence (P08172 whole entry): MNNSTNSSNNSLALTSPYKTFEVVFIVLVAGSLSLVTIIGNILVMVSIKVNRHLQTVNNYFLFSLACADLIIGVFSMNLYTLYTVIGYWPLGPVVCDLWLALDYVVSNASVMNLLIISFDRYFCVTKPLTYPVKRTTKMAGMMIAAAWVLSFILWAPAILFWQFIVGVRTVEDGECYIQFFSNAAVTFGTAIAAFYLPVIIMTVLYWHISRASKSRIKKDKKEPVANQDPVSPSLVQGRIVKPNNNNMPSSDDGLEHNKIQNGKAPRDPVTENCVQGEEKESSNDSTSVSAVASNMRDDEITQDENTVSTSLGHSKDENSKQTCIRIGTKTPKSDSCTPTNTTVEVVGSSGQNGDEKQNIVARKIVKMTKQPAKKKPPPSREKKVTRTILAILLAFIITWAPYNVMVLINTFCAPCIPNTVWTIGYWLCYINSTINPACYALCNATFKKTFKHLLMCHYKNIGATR
The class given is cell membranes, CHO-K1, Membrane.

The target of assay [8] is Mitogen-activated protein kinase 14 (Homo sapiens, UniProt Q16539). Details: species or system Escherichia coli.

This note sets out measurements from ChEMBL document CHEMBL1909046, “DrugMatrix in vitro pharmacology data”.

Sequence of Mitogen-activated protein kinase 14 (Q16539 whole entry): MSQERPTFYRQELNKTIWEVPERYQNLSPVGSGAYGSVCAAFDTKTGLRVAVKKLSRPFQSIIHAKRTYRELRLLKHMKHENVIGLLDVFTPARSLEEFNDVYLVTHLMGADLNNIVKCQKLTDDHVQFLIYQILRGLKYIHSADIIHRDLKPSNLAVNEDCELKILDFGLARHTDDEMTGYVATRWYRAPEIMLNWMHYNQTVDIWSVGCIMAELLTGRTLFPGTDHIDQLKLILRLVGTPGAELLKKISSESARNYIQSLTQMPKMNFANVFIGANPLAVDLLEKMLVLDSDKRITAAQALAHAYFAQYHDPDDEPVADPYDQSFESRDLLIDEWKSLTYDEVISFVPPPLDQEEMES
Sequence of Vasopressin V1a receptor (P37288 whole entry): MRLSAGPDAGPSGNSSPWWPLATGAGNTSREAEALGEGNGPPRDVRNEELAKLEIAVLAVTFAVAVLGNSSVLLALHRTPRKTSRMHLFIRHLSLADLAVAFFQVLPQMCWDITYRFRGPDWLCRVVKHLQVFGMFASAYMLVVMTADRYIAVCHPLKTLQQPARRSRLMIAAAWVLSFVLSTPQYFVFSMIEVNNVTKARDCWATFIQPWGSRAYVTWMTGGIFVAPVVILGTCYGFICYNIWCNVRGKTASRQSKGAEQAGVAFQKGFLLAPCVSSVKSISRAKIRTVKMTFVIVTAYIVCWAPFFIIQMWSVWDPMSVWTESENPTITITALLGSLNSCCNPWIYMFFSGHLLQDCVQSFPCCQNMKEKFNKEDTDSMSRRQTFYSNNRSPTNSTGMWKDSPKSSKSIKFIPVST
Sequence of Vascular endothelial growth factor receptor 1 (P17948 whole entry): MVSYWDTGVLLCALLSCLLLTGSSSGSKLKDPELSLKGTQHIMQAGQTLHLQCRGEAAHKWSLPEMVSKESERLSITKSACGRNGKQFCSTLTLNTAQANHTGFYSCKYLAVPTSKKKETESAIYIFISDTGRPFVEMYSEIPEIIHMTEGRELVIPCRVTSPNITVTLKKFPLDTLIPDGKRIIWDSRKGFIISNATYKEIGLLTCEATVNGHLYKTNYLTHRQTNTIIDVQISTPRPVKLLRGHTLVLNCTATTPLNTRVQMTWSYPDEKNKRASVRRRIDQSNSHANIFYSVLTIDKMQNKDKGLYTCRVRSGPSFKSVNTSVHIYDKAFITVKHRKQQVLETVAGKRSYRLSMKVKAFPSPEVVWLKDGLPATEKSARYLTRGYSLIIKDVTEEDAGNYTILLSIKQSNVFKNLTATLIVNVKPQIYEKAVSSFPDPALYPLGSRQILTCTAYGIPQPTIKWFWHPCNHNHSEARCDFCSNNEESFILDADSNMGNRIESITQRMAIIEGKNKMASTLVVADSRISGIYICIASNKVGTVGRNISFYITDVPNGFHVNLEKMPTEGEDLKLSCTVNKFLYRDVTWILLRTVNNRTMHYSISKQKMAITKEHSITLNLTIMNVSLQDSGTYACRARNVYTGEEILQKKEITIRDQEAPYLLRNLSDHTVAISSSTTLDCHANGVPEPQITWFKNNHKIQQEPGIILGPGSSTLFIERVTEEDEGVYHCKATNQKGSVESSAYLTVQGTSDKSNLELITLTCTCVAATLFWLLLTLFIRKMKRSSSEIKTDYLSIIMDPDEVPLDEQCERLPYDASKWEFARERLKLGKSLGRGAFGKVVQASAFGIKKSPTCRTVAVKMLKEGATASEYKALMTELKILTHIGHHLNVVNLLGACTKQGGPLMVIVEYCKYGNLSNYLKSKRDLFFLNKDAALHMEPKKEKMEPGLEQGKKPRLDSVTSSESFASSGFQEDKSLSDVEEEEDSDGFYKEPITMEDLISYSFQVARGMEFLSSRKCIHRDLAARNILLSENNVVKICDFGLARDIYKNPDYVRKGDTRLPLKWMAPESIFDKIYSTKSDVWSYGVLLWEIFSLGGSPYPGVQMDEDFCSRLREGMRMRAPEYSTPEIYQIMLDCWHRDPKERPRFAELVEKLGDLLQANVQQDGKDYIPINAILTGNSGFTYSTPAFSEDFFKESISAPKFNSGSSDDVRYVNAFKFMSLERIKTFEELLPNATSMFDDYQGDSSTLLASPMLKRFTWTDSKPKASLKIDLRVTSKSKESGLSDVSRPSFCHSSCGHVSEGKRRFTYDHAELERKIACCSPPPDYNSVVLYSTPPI
Sequence of Kappa-type opioid receptor (P41145 whole entry): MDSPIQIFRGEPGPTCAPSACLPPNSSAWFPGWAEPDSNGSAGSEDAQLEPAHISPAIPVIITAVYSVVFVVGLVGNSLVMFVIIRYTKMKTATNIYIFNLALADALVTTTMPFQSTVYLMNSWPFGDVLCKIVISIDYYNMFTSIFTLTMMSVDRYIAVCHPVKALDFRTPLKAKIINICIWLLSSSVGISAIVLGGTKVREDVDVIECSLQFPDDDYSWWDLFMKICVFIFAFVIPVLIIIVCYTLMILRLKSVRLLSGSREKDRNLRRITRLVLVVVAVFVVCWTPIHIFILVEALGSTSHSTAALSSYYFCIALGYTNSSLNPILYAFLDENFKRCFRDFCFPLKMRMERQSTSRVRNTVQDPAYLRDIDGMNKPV

As a reminder, the IC50 is the concentration needed to halve the response being measured. For orientation: Ki means the dissociation constant of the complex between target and ligand, obtained from inhibition or displacement. Turning to `C[C@]12CCC(=O)C=C1CC[C@@H]1[C@@H]2C(=O)C[C@@]2(C)[C@H]1CC[C@]2(O)C(=O)CO` [CORTISONE], the IC50 result (on Vasopressin V1a receptor; in assay [1]; in assay [2]; in assay [3]; in assay [4]; on Caspase-1) was “Not Active” throughout. In addition, the half-inhibitory concentration (IC50) entry in [5], in [6], in assay [7] (cho-k1) and in assay [8] was “Not Active” each time. Further, the Ki result in assay [4] and in [5] was “Not Active” in each case.

On to `Cc1ccccc1N1CCN(CCc2nnc3n2CCCC3)CC1` [DAPIPRAZOLE], for which the IC50 result (against Vasopressin V1a receptor; in assay [1]; in assay [2]; in [3]; in [4]; against Caspase-1) was “Not Active” each time. Moreover, the IC50 entry in assay [5], in assay [6], in assay [7] (cho-k1) and in assay [8] was “Not Active” each time. The Ki entry in assay [4] and in [5] was “Not Active” in each case.

`CC1=Nc2ccc(Cl)cc2S(=O)(=O)N1` [DIAZOXIDE]: the IC50 entry (at Vasopressin V1a receptor; in [1]; in [2]; in assay [3]; in assay [4]; on Caspase-1) was “Not Active” in each case. Also, the IC50 result in assay [5], in assay [6], in assay [7] (cho-k1) and in assay [8] was “Not Active” each time. Moreover, the Ki entry in [4] and in [5] was “Not Active” in each case.

Take `CC(=O)OCC(=O)[C@@]1(OC(C)=O)[C@@H](C)C[C@H]2[C@@H]3C[C@H](F)C4=CC(=O)C=C[C@]4(C)[C@@]3(F)[C@@H](O)C[C@@]21C` [DIFLORASONE DIACETATE]: the half-maximal inhibitory concentration (IC50) result (against Vasopressin V1a receptor; in assay [1]; in assay [2]; in assay [3]; in assay [4]; against Caspase-1) was “Not Active” in each case. Also, the IC50 entry in [5], in assay [6], in assay [7] (cho-k1) and in [8] was “Not Active” each time. Besides, the Ki result in assay [4] and in assay [5] was “Not Active” in each case.

On to `COc1ccc([C@@H]2Sc3ccccc3N(CCN(C)C)C(=O)[C@@H]2OC(C)=O)cc1` [DILTIAZEM], for which the IC50 entry (at Vasopressin V1a receptor; in assay [1]; in assay [2]; in assay [3]; in assay [4]; at Caspase-1) was “Not Active” each time. The IC50 result in [5], in assay [6], in [7] (cho-k1) and in assay [8] was “Not Active” in each case. Further, the Ki result in assay [4] and in [5] was “Not Active” throughout.

As for `CCc1ccc(C(=O)C(C)CN2CCCCC2)cc1` (configuration not stated) [EPERISONE], the IC50 entry (against Vasopressin V1a receptor; in [1]; in [2]; in assay [3]; in [4]; against Caspase-1) was “Not Active” each time. In addition, the IC50 entry in assay [5] is “Not Active”; in [6] it was “Not Active”; in [7] (read-out: IC50) it was 2340 nM; in [8], “Not Active”. Besides, the Ki entry in assay [4] was “Not Active”; in [5], “Not Active”; in [7] (read-out: Ki), 831 nM.

On to `C=C1CC[C@H](O)C/C1=C/C=C1\CCC[C@]2(C)[C@@H]([C@H](C)/C=C/[C@H](C)C(C)C)CC[C@@H]12` [ERGOCALCIFEROL], for which the IC50 result (against Vasopressin V1a receptor; in [1]; in [2]; in [3]; in assay [4]; against Caspase-1) was “Not Active” throughout. Moreover, the IC50 result in [5], in [6], in [7] (cho-k1) and in assay [8] was “Not Active” throughout. The Ki entry in assay [4] and in assay [5] was “Not Active” throughout.

As to `CCc1cccc2c3c([nH]c12)C(CC)(CC(=O)O)OCC3` (configuration not stated) [ETODOLAC], the IC50 entry (against Vasopressin V1a receptor; in assay [1]; in assay [2]; in assay [3]; in [4]; on Caspase-1) was “Not Active” in each case. In addition, the IC50 result in [5], in [6], in assay [7] (cho-k1) and in [8] was “Not Active” throughout. Further, the Ki result in [4] and in [5] was “Not Active” in each case.
